Data: PubChem BioAssay (NCI)
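In this assay, cells in 96-well plates receive the compound at five concentrations for 48 hours. Endpoints are linearly interpolated between the surrounding concentrations. At the GI50, growth is halved. TGI marks complete inhibition of growth.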

What was measured:
Test in all cases: NCI tumour cell line growth inhibition, 48 h
RPMI-8226 leukemia = test system: RPMI-8226 leukemia
U251 CNS = test system: U251 CNS
LOX IMVI melanoma = test system: LOX IMVI melanoma
UACC-62 melanoma = test system: UACC-62 melanoma
RXF 393 renal = test system: RXF 393 renal
T-47D breast = test system: T-47D breast
K-562 leukemia = test system: K-562 leukemia
SF-295 CNS = test system: SF-295 CNS
SF-539 CNS = test system: SF-539 CNS
PC-3 prostate = test system: PC-3 prostate

SMILES | GI50 (RPMI-8226 leukemia) [nM] | TGI (RPMI-8226 leukemia) [nM] | GI50 (U251 CNS) [nM] | TGI (U251 CNS) [nM] | GI50 (LOX IMVI melanoma) [nM] | TGI (LOX IMVI melanoma) [nM] | GI50 (UACC-62 melanoma) [nM] | TGI (UACC-62 melanoma) [nM] | GI50 (RXF 393 renal) [nM] | TGI (RXF 393 renal) [nM] | GI50 (T-47D breast) [nM] | TGI (T-47D breast) [nM] | GI50 (K-562 leukemia) [nM] | GI50 (SF-295 CNS) [nM] | TGI (SF-295 CNS) [nM] | GI50 (SF-539 CNS) [nM] | TGI (SF-539 CNS) [nM] | GI50 (PC-3 prostate) [nM] | TGI (PC-3 prostate) [nM] | TGI (K-562 leukemia) [nM]
COc1ccc2nc3ccccc3c(NCCNCC(C)O)c2c1 (centres undefined) | 398 | 2660 | 549 | 4940 | 202 | 483 | 354 | 2080 | 373 | 1740 | 465 | 6270 | 330 | 360 | 4020 | 435 | 2040 | 537 | 4820 | 
COc1ccc(-c2c(-c3ccc(C#N)c(F)c3)nc(N3CCC(N)CC3)n(C)c2=O)cc1F | 18400 | 49100 | 14600 | 32800 | 13100 | 26000 | 16100 | 32900 | 7410 | 23600 | 14000 | 46300 | 11600 | 15400 | 31900 | 13800 | 29300 | 12000 | 30600 | 28500
CC/C=C\C[C@H]1C/C=C2/C(=O)C(Cl)=C[C@@H]2C/C=C\CCCC(=O)O1 | 81.9 | 492 | 214 | 694 | 159 | 520 | 280 | 1200 | 400 | 802 | 580 | 2360 | 96.1 | 705 | 2260 | 523 | 1410 | 346 | 986 | 3140
C(=N\Nc1ccc2ccccc2n1)/c1ccccn1 | 513 | 15700 | 413 | > 55000 | 422 | 13800 | 877 | 5540 | 443 | > 52000 | 574 | 38500 | 487 | 348 | 12900 | 362 | 6830 | 825 | 73000 | > 39100
COC(=O)c1cc(-c2ccc(S(C)(=O)=O)cc2)[nH]c1N/N=C/c1c(Cl)cccc1Cl | 491 | > 39100 | 489 | > 54600 | 1610 | > 100000 | 391 | > 47900 | 1040 | > 100000 | 374 | > 35700 | 1870 | 281 | 3240 | 496 | 4790 | 565 | > 50000 | > 100000
COc1ccc(/C=C/c2ccnc3ccccc23)cc1OC |  | 57100 |  | > 100000 |  | 21600 |  | 29400 |  | 27200 |  | 74500 |  |  | 46800 |  | 30000 |  | 36400 | 22100
